This note sets out measurements from the supplement of paper PMC12317010.

This data set is described as follows: collision cross section in nitrogen (drift tube, single-field); higher = larger gas-phase ion size.
[1] abbreviates: ion type: [M+H], ion source: APCI, ion mode: Positive.
[2] abbreviates: ion type: [M+H], ion source: ESI, ion mode: Positive.
Where [3] appears, read: ion type: [M+Na], ion source: ESI, ion mode: Positive.
[4] abbreviates: ion type: [M-H], ion source: ESI, ion mode: Negative.
[5] abbreviates: ion type: [M+], ion source: APCI, ion mode: Positive.

Where a name gives a salt, the structure may show the parent alone.
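Also: chemical standards at 10 µM analysed by drift tube IMS-QTOF MS in about 3.95 torr nitrogen, mean of duplicate injections differing ≤1%, mass error below 10 ppm.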

In the case of `O=P(c1ccccc1)(c1ccccc1)c1ccccc1` [Triphenylphosphine oxide], the “collision cross section in nitrogen” value by setting is: under setting [1], 163 Å²; under setting [2], 162.9 Å²; under setting [3], 182.6 Å².

In the case of `CCN(CCC#N)c1ccc(N=Nc2ccc([N+](=O)[O-])cc2)cc1` [C.I. Disperse Orange 25], the “collision cross section in nitrogen” value stood at 188.5 Å² under setting [1], 188.8 Å² under setting [2] and 189.8 Å² under setting [3].

Turning to `CCCCCCC(O)CCCCCCCCCCC(=O)OC` (centres undefined) [Methyl 12-hydroxyoctadecanoate], under setting [3], the “collision cross section in nitrogen” value was found to be 194.2 Å².

Consider `CCCCCCCCOC(=O)c1ccc(C(=O)OCCCCCCCC)c(C(=O)OCCCCCCCC)c1` [Tri-n-octyl trimellitate], for which the “collision cross section in nitrogen” value is 259 Å² under setting [2] and 263.7 Å² under setting [3].

Turning to `O=C1c2ccccc2C(=O)c2cc(S(=O)(=O)O)ccc21` [Sodium 2-anthraquinonesulfonate], the “collision cross section in nitrogen” value under setting [4] is listed as 162 Å².

Consider `CCCCCCCCCCOC(=O)c1ccccc1C(=O)OCCCCCCCC` [Octyl decyl phthalate], for which the “collision cross section in nitrogen” value amounted to 222.5 Å² under setting [2] and 219.1 Å² under setting [3].

On to `CC1COc2ccccc2N1` (centres undefined) [3-Methyl-3,4-dihydro-2H-1,4-benzoxazine], for which the “collision cross section in nitrogen” value reads like this: under setting [1], 130.4 Å²; under setting [2], 131.2 Å².

Consider `Nc1c(S(=O)(=O)O)cc(Br)c2c1C(=O)c1ccccc1C2=O` [Bromamine acid sodium salt], for which the “collision cross section in nitrogen” value under setting [4] was found to be 169.2 Å².

`CC(C)c1ccc2sc3ccccc3c(=O)c2c1` [2-Isopropylthioxanthone]: the “collision cross section in nitrogen” value reads like this: under setting [1], 155.5 Å²; under setting [2], 156.4 Å².

For the molecule `CCCN(CCC)c1c([N+](=O)[O-])cc(C(F)(F)F)c(N)c1[N+](=O)[O-]` [Prodiamine], the “collision cross section in nitrogen” value under setting [4] is 171.1 Å².

In the case of `Oc1ccc(Cc2ccc(O)cc2)cc1` [Bis(4-hydroxyphenyl)methane], the “collision cross section in nitrogen” value under setting [4] is given as 153.6 Å².

As to `Nc1cccnc1N` [2,3-Diaminopyridine], the “collision cross section in nitrogen” value under setting [2] was 118.5 Å².

In the case of `O=c1nn[nH]c2ccccc12` [1,2,3-Benzotriazin-4(1H)-one], under setting [4], the “collision cross section in nitrogen” value was determined as 126.4 Å².

As to `NS(=O)(=O)c1ccc(Cl)cc1` [4-Chlorobenzenesulphonamide], the “collision cross section in nitrogen” value under setting [4] is listed as 134.9 Å².

In the case of `O=[N+]([O-])O` [Magnesium dinitrate hexahydrate], the “collision cross section in nitrogen” value under setting [4] is on record as 104.1 Å².

For `Oc1ccc2ccccc2c1N=Nc1ccccc1` [C.I. Solvent Yellow 14], the “collision cross section in nitrogen” value reads like this: under setting [1], 156.9 Å²; under setting [4], 160.1 Å².

As to `CC(C)OC(=O)Nc1cccc(Cl)c1` [Chlorpropham], the “collision cross section in nitrogen” value under setting [4] was determined as 148.4 Å².

Regarding `Nc1cccnc1` [3-Pyridinamine], the “collision cross section in nitrogen” value was determined as 115 Å² under setting [1] and 115.2 Å² under setting [2].

In the case of `C#CCN1C(=O)COc2cc(F)c(N3C(=O)C4=C(CCCC4)C3=O)cc21` [Flumioxazin], the “collision cross section in nitrogen” value runs as follows: under setting [2], 183.7 Å²; under setting [5], 181 Å²; under setting [4], 184.5 Å².

As to `COC(=O)N(C(=O)N1CO[C@@]2(C(=O)OC)Cc3cc(Cl)ccc3C2=N1)c1ccc(OC(F)(F)F)cc1` [Indoxacarb], the “collision cross section in nitrogen” value under setting [1] is given as 206.6 Å², the “collision cross section in nitrogen” value under setting [2] is on record as 205.7 Å² and the “collision cross section in nitrogen” value under setting [3] stood at 220.4 Å².

As for `N#Cc1cc(Br)c(O)c(Br)c1` [Bromoxynil], the “collision cross section in nitrogen” value under setting [4] amounted to 131.2 Å².

In the case of `CCCCCCCC(=O)OCC(COC(=O)CCCCCCC)OC(=O)CCCCCCC` [Tricaprylin], under setting [3], the “collision cross section in nitrogen” value turned out to be 231.4 Å².

For `CCc1c(C(=O)NN2CCCCC2)nn(-c2ccc(Cl)cc2Cl)c1-c1ccc(Br)cc1` [Surinabant], the “collision cross section in nitrogen” value is, setting by setting: under setting [1], 224.8 Å²; under setting [2], 224.1 Å²; under setting [3], 232.1 Å²; under setting [4], 226.6 Å².

In the case of `COc1cc(O)c(C(=O)c2ccccc2)cc1S(=O)(=O)O` [Sulisobenzone], the “collision cross section in nitrogen” value under setting [4] stood at 168.1 Å².

On to `Cc1cc(Cc2ccc(N)c(C)c2)ccc1N` [4,4'-Methylenebis(o-toluidine)], for which the “collision cross section in nitrogen” value is, setting by setting: under setting [1], 179.1 Å²; under setting [2], 171.2 Å².

Consider `CC(C)Nc1nc(Cl)nc(NC(C)C)n1` [2,4-Bis(isopropylamino)-6-chloro-1,3,5-triazine], for which the “collision cross section in nitrogen” value by setting is: under setting [1], 154.9 Å²; under setting [2], 155.3 Å².

Consider `CC(C)CP(=S)(S)CC(C)C` [Sodium diisobutyldithiophosphinate], for which the “collision cross section in nitrogen” value under setting [4] came out at 146.5 Å².

In the case of `O=C(O)CCCCC(=O)O` [Hexanedioic acid], the “collision cross section in nitrogen” value under setting [4] is recorded as 127.9 Å².

Take `O=[N+]([O-])c1ccc2c(c1)Cc1ccccc1-2` [2-Nitrofluorene]: the “collision cross section in nitrogen” value under setting [4] is 141.1 Å².

Take `O=C(C1CCCCC1)N1CC(=O)N2CCc3ccccc3C2C1` (centres undefined) [Praziquantel]: the “collision cross section in nitrogen” value by setting is: under setting [1], 178.5 Å²; under setting [2], 178.3 Å²; under setting [3], 185.4 Å².

Turning to `CN(C)c1ccc(Cc2ccc(N(C)C)cc2)cc1` [4,4'-Methylenebis(N,N-dimethylaniline)], the “collision cross section in nitrogen” value stood at 175.3 Å² under setting [1] and 174.8 Å² under setting [2].

In the case of `CSc1nnc(C(C)(C)C)c(=O)[nH]1` [Metribuzin-DA], the “collision cross section in nitrogen” value is recorded as 144.2 Å² under setting [1], 145.2 Å² under setting [2], 161.3 Å² under setting [3] and 144.8 Å² under setting [4].

Regarding `CCCC[C@H]1CN(CC2CCOCC2)C(=O)OC12CCN(C1(C)CCN(C(=O)c3c(C)ncnc3C)CC1)CC2`, the “collision cross section in nitrogen” value is given as 245 Å² under setting [1]; 244.1 Å² under setting [2]; 240.5 Å² under setting [3]; 239.9 Å² under setting [5]; 248.6 Å² under setting [4].

Take `Nc1ccc(Cl)cc1C(=O)c1ccccc1` [2-Amino-5-chlorobenzophenone]: the “collision cross section in nitrogen” value under setting [4] was 150.4 Å².

For `O=C(Nc1ccccc1SSc1ccccc1NC(=O)c1ccccc1)c1ccccc1` [2,2'-Dibenzoylaminodiphenyl disulfide], the “collision cross section in nitrogen” value by setting is: under setting [1], 194.6 Å²; under setting [2], 194 Å²; under setting [3], 203 Å²; under setting [4], 206 Å².

Take `CCCCNC(=O)NCCCC` [N,N'-Dibutylurea]: the “collision cross section in nitrogen” value is reported as 146.3 Å² under setting [1], 146 Å² under setting [2] and 164.2 Å² under setting [3].

As for `[O-][Cl+]O` [Sodium chlorite], the “collision cross section in nitrogen” value under setting [4] turned out to be 105.2 Å².

`CC(C)c1cccc(C(C)C)c1N1C(=O)c2ccc(O)cc2C1=O` [2-(2,6-Diisopropylphenyl)-5-hydroxy-1H-isoindole-1,3-dione]: under setting [4], the “collision cross section in nitrogen” value is on record as 182 Å².

As for `CC[C@H]1OC(=O)[C@H](C)[C@@H](O[C@H]2C[C@@](C)(OC)[C@@H](O)[C@H](C)O2)[C@H](C)[C@@H](O[C@@H]2O[C@H](C)C[C@H](N(C)C)[C@H]2O)[C@](C)(O)C[C@@H](C)C(=NOCOCCOC)[C@H](C)[C@@H](O)[C@]1(C)O` [Roxithromycin], the “collision cross section in nitrogen” value reads like this: under setting [1], 277.7 Å²; under setting [2], 276.9 Å²; under setting [3], 280.7 Å²; under setting [5], 276.3 Å²; under setting [4], 282.3 Å².

For the molecule `O=C(O)C(F)(F)C(F)(F)C(F)(F)C(F)(F)C(F)(F)C(F)(F)C(F)(F)C(F)(F)C(F)(F)F` [Perfluorodecanoic acid], the “collision cross section in nitrogen” value under setting [4] is recorded as 175.1 Å².

With `CCCCCCCCCCCCCCCC(=O)OC[C@H](O)[C@H]1OC(=O)C(O)=C1O` [Ascorbyl palmitate], the “collision cross section in nitrogen” value under setting [4] came to 202.4 Å².

As to `CC(C)N(C(=O)CCl)c1ccccc1` [Propachlor], the “collision cross section in nitrogen” value under setting [1] is 143.4 Å², the “collision cross section in nitrogen” value under setting [2] worked out at 143.2 Å² and the “collision cross section in nitrogen” value under setting [3] is reported as 161.5 Å².

Consider `O=C(Oc1ccccc1)c1ccc(O)cc1` [Phenylparaben], for which the “collision cross section in nitrogen” value under setting [4] was 150.3 Å².

For `c1ccc2cc3c(ccc4ccccc43)cc2c1` [Benz(a)anthracene], the “collision cross section in nitrogen” value under setting [5] stood at 146.3 Å².

With `COc1ccc(N)cc1` [p-Anisidinium chloride], the “collision cross section in nitrogen” value under setting [2] turned out to be 133.2 Å².

On to `Cc1cc(=O)oc2cc(N(C)C)ccc12` [7-(Dimethylamino)-4-methylcoumarin], for which the “collision cross section in nitrogen” value stood at 140.9 Å² under setting [1], 141.3 Å² under setting [2], 165.6 Å² under setting [3] and 148.6 Å² under setting [4].

On to `CCCc1c(OCCCCc2nnn[nH]2)ccc(C(C)=O)c1O` [Tomelukast], for which, under setting [3], the “collision cross section in nitrogen” value was 177.6 Å².

Regarding `CN(C)CCCN1c2ccccc2CCc2ccc(Cl)cc21` [Clomipramine hydrochloride], the “collision cross section in nitrogen” value was found to be 174.5 Å² under setting [1] and 174.5 Å² under setting [2].

Take `COC(=O)CCc1cc(C(C)(C)C)c(O)c(C(C)(C)C)c1` [Methyl 3,5-bis(tert-butyl)-4-hydroxyhydrocinnamate]: the “collision cross section in nitrogen” value was 176.2 Å² under setting [3] and 178.7 Å² under setting [4].

Consider `NS(=O)(=O)O` [Sulfamic acid], for which the “collision cross section in nitrogen” value under setting [4] is on record as 112 Å².

In the case of `Cc1cc(Cl)ccc1N=CN(C)C` [Chlordimeform], the “collision cross section in nitrogen” value under setting [1] came out at 145.6 Å² and the “collision cross section in nitrogen” value under setting [2] worked out at 146.4 Å².

Turning to `CCCCCCCCCCCCCC[n+]1ccccc1` [Tetradecylpyridinium bromide], the “collision cross section in nitrogen” value is 185.4 Å² (ion source: APCI, ion mode: Positive, ion type: [M]+ (permanent cation)) and 185.9 Å² (ion source: ESI, ion mode: Positive, ion type: [M]+ (permanent cation)).

Turning to `CCOC(=O)c1ccc([C@H]2CC[C@H](NC[C@H](O)COc3ccc(O)c(NS(C)(=O)=O)c3)CC2)cc1`, the “collision cross section in nitrogen” value is recorded as 212.8 Å² under setting [1], 231.4 Å² under setting [2], 230.3 Å² under setting [3] and 225.6 Å² under setting [4].

As to `CC(C)(C)c1ccc(O)c(O)c1` [4-tert-Butylcatechol], the “collision cross section in nitrogen” value under setting [4] worked out at 139.3 Å².

With `COc1ccc(-c2coc3cc(O)cc(O)c3c2=O)cc1` [Biochanin A], the “collision cross section in nitrogen” value under setting [1] turned out to be 164.6 Å², the “collision cross section in nitrogen” value under setting [2] is reported as 164.1 Å², the “collision cross section in nitrogen” value under setting [3] was 175 Å² and the “collision cross section in nitrogen” value under setting [4] worked out at 168 Å².

In the case of `O=C(O)C1(C(=O)Nc2ccc(Cl)cc2Cl)CC1` [Cyclanilide], the “collision cross section in nitrogen” value under setting [4] came to 156.3 Å².
